The text below walks through data of ChEMBL document CHEMBL3044635, “Effect of propiconazole and difenoconazole on the control of anthracnose of chilli fruits caused by Colletotrichum capsici” (Crop Prot, 2006).

Where only a bound is given, the exact number is not on record here.

For series [1], the system named is Colletotrichum truncatum. Description: Fungicidal activity against Colletotrichum capsici assessed as inhibition of mycelial growth. Type of series: functional.
Series [2] concerns Colletotrichum truncatum. The experiment in a line: Fungicidal activity against Colletotrichum capsici assessed as reduction of pectin trans-eliminase production at 1 ug/ml incubated for 10 days measured up to 120 min by Ostwald-Fenske viscometric analysis (reference value: 38.5%). Type of series: functional. On the set-up: scale not given: the % may be the effect or the level left.

Series [3] relates to Colletotrichum truncatum. Description: Fungicidal activity against Colletotrichum capsici assessed as reduction of polygalacturonase trans-eliminase production at 1 ug/ml incubated for 10 days measured up to 120 min by Ostwald-Fenske viscometric analysis (reference value: 40.8%). The format is functional. On the set-up: scale not given: the % may be the effect or the level left.

For series [4], the system named is Colletotrichum truncatum. The experiment in a line: Fungicidal activity against Colletotrichum capsici assessed as reduction of polygalacturonase production at 1 ug/ml incubated for 10 days measured up to 120 min by Ostwald-Fenske viscometric analysis (reference value: 45.3%). The format is functional. Further details: scale not given: the % may be the effect or the level left.

Series [5] has as its system Colletotrichum truncatum. The experiment in a line: Fungicidal activity against Colletotrichum capsici assessed as sporulation at 50 ug/ml incubated 16 hr photoperiod for 20 days by haemocytometer (reference value: 0.081 x 10^6 ml'-1). Type of series: functional.
Series [6] deals with Colletotrichum truncatum. Description: Fungicidal activity against Colletotrichum capsici assessed as sporulation at 25 ug/ml incubated 16 hr photoperiod for 20 days by haemocytometer (reference value: 0.081 x 10^6 ml'-1). Type of series: functional.
The subject of series [7] is Colletotrichum truncatum. Description: Fungicidal activity against Colletotrichum capsici assessed as sporulation at 10 ug/ml incubated 16 hr photoperiod for 20 days by haemocytometer (reference value: 0.081 x 10^6 ml'-1). The format is functional.
Series [8] concerns Colletotrichum truncatum. The experiment in a line: Fungicidal activity against Colletotrichum capsici assessed as sporulation at 5 ug/ml incubated 16 hr photoperiod for 20 days by haemocytometer (reference value: 0.081 x 10^6 ml'-1). Type of series: functional.
For series [9], the system named is Colletotrichum truncatum. Description: Fungicidal activity against Colletotrichum capsici assessed as sporulation at 1 ug/ml incubated 16 hr photoperiod for 20 days by haemocytometer (reference value: 0.081 x 10^6 ml'-1). The format is functional.
Series [10] has as its system Colletotrichum truncatum. The experiment in a line: Fungicidal activity against Colletotrichum capsici assessed as sporulation at 0.5 ug/ml incubated 16 hr photoperiod for 20 days by haemocytometer (reference value: 0.081 x 10^6 ml'-1). The format is functional.
Series [11] has as its system Colletotrichum truncatum. Description: Fungicidal activity against Colletotrichum capsici assessed as sporulation at 0.1 ug/ml incubated 16 hr photoperiod for 20 days by haemocytometer (reference value: 0.081 x 10^6 ml'-1). The format is functional.
For series [12], the system named is Colletotrichum truncatum. The experiment in a line: Fungicidal activity against Colletotrichum capsici assessed as spore germination at 50 ug/ml after 48 to 96 hr (reference value: 70.2 CFU). The format is functional.
For series [13], the system named is Colletotrichum truncatum. The experiment in a line: Fungicidal activity against Colletotrichum capsici assessed as spore germination at 10 ug/ml after 48 to 96 hr (reference value: 70.2 CFU). Type of series: functional.
The subject of series [14] is Colletotrichum truncatum. Description: Fungicidal activity against Colletotrichum capsici assessed as spore germination at 25 ug/ml after 48 to 96 hr (reference value: 70.2 CFU). The format is functional.
Series [15] has as its system Colletotrichum truncatum. The experiment in a line: Fungicidal activity against Colletotrichum capsici assessed as spore germination at 5 ug/ml after 48 to 96 hr (reference value: 70.2 CFU). Type of series: functional.
Series [16] concerns Colletotrichum truncatum. The experiment in a line: Fungicidal activity against Colletotrichum capsici assessed as spore germination at 1 ug/ml after 48 to 96 hr (reference value: 70.2 CFU). Type of series: functional.
The subject of series [17] is Colletotrichum truncatum. The experiment in a line: Fungicidal activity against Colletotrichum capsici assessed as spore germination at 0.5 ug/ml after 48 to 96 hr (reference value: 70.2 CFU). The format is functional.
The test system of series [18] is Colletotrichum truncatum. The experiment in a line: Fungicidal activity against Colletotrichum capsici assessed as inhibition of spore germination at 0.1 ug/ml after 48 to 96 hr relative to control. Type of series: functional.
The subject of series [19] is Colletotrichum truncatum. The experiment in a line: Fungicidal activity against Colletotrichum capsici assessed as mycelial biomass at 25 ug/ml incubated 16 hr photoperiod for 20 days (reference value: 675 mg). The format is functional.
Series [20] has as its system Colletotrichum truncatum. The experiment in a line: Fungicidal activity against Colletotrichum capsici assessed as mycelial biomass at 50 ug/ml incubated 16 hr photoperiod for 20 days (reference value: 675 mg). Type of series: functional.
Series [21] relates to Colletotrichum truncatum. Description: Fungicidal activity against Colletotrichum capsici assessed as mycelial biomass at 10 ug/ml incubated 16 hr photoperiod for 20 days (reference value: 675 mg). The format is functional.
The test system of series [22] is Colletotrichum truncatum. The experiment in a line: Fungicidal activity against Colletotrichum capsici assessed as mycelial biomass at 5 ug/ml incubated 16 hr photoperiod for 20 days (reference value: 675 mg). Type of series: functional.
Series [23] has as its system Colletotrichum truncatum. The experiment in a line: Fungicidal activity against Colletotrichum capsici assessed as mycelial biomass at 1 ug/ml incubated 16 hr photoperiod for 20 days (reference value: 675 mg). The format is functional.
Series [24] relates to Colletotrichum truncatum. The experiment in a line: Fungicidal activity against Colletotrichum capsici assessed as mycelial biomass at 0.5 ug/ml incubated 16 hr photoperiod for 20 days (reference value: 675 mg). The format is functional.
Series [25] has as its system Colletotrichum truncatum. Description: Fungicidal activity against Colletotrichum capsici assessed as mycelial biomass at 0.1 ug/ml incubated 16 hr photoperiod for 20 days (reference value: 675 mg). Type of series: functional.
In series [26] the test system is Colletotrichum truncatum. The experiment in a line: Fungicidal activity against Colletotrichum capsici assessed as linear growth at 50 ug/ml incubated 16 hr photoperiod for 20 days (reference value: 90 mm). Type of series: functional.
Series [27] concerns Colletotrichum truncatum. Description: Fungicidal activity against Colletotrichum capsici assessed as linear growth at 25 ug/ml incubated 16 hr photoperiod for 20 days (reference value: 90 mm). The format is functional.
Series [28] has as its system Colletotrichum truncatum. The experiment in a line: Fungicidal activity against Colletotrichum capsici assessed as linear growth at 5 ug/ml incubated 16 hr photoperiod for 20 days (reference value: 90 mm). The format is functional.
Series [29] has as its system Colletotrichum truncatum. The experiment in a line: Fungicidal activity against Colletotrichum capsici assessed as linear growth at 10 ug/ml incubated 16 hr photoperiod for 20 days (reference value: 90 mm). The format is functional.
Series [30] concerns Colletotrichum truncatum. The experiment in a line: Fungicidal activity against Colletotrichum capsici assessed as linear growth at 1 ug/ml incubated 16 hr photoperiod for 20 days (reference value: 90 mm). The format is functional.
In series [31] the test system is Colletotrichum truncatum. Description: Fungicidal activity against Colletotrichum capsici assessed as linear growth at 0.5 ug/ml incubated 16 hr photoperiod for 20 days (reference value: 90 mm). Type of series: functional.
The subject of series [32] is Colletotrichum truncatum. The experiment in a line: Fungicidal activity against Colletotrichum capsici assessed as linear growth at 0.1 ug/ml incubated 16 hr photoperiod for 20 days (reference value: 90 mm). The format is functional.
Series [33] concerns Colletotrichum truncatum. Description: Fungicidal activity against Colletotrichum capsici infected chilli plant assessed as fruit length at 0.1% applied as spray on day 10 post inoculation and twice every 20 days measured on day 155 post sowing in green house conditions (reference value: 6.8 to 7 cm). The format is functional.
Series [34] has as its system Capsicum annuum. The experiment in a line: Phytotoxicity in Capsicum annuum (pepper) at 0.1% applied as spray. The format is organism-based. The conditions noted are these: in vivo, other.
The subject of series [35] is Colletotrichum truncatum. The experiment in a line: Fungicidal activity against Colletotrichum capsici infected chilli plant assessed as fruit mass measured per pot at 0.1% applied as spray on day 10 post inoculation and twice every 20 days measured on day 155 post sowing in green house conditions (reference value: 85.3 to 94.5 g). Type of series: functional.
The test system of series [36] is Colletotrichum truncatum. Description: Fungicidal activity against Colletotrichum capsici infected chilli plant assessed as percent disease index at 0.1% applied as spray on day 10 post inoculation and twice every 20 days measured on day 155 post sowing in green house conditions (reference value: 62.5 to 68.6%). Type of series: functional.
Series [37] has as its system Colletotrichum truncatum. The experiment in a line: Fungicidal activity against Colletotrichum capsici infected chilli plant assessed as fruit length measured per plot at 0.1% applied as spray on day 10 post inoculation and twice every 20 days measured on day 155 post sowing in field conditions (reference value: 8 to 8.7 cm). Type of series: functional.
For series [38], the system named is Colletotrichum truncatum. The experiment in a line: Fungicidal activity against Colletotrichum capsici infected chilli plant assessed as fruit yield measured per plot at 0.1% applied as spray on day 10 post inoculation and twice every 20 days measured on day 155 post sowing in field conditions (reference value: 8.25 to 9.3 kg). Type of series: functional.
The test system of series [39] is Colletotrichum truncatum. Description: Fungicidal activity against Colletotrichum capsici infected chilli plant assessed as percent disease index at 0.1% applied as spray on day 10 post inoculation and twice every 20 days measured on day 155 post sowing in field conditions (reference value: 51 to 56.5%). Type of series: functional.

Consider `CC(C)(C)C(O)C(Oc1ccc(-c2ccccc2)cc1)n1cncn1` (configuration not stated) [BITERTANOL], for which the ED50 in [1] is recorded as less than 5 ugAi/ml.
On to `COC(=O)Nc1nc2ccccc2[nH]1` [CARBENDAZIM], for which the Activity was determined as 18% in [2]; 19% in series [3]; 13.5% in [4]; 0 ×10⁶ /ml in series [5]; 0 ×10⁶ /ml in series [6]; 0 ×10⁶ /ml in [7]. Also, the Activity in series [8] turned out to be 1.03 ×10⁶ /ml; in [9], 1.49 ×10⁶ /ml; in series [10], 2.42 ×10⁶ /ml; in [11] it was 3.53 ×10⁶ /ml; in series [19] it was 46 mg; in [20], 0 mg. Besides, the Activity in series [21] turned out to be 82 mg; in series [22], 186 mg; in series [23] it was 304 mg; in series [24] it was 405 mg; in series [25], 570 mg; in [26], 9 mm. The Activity in series [27] amounted to 9 mm; in [28] it was 39.5 mm; in series [29], 21.3 mm; in [30], 45.8 mm; in series [31], 66.3 mm; in series [32], 85.5 mm. Also, the Activity in series [33] is 7.3 cm; in [34], “Non-toxic”; in series [37], 8.5 cm. The CFU was determined as 0 in [12]; 0 in [13]; 0 in series [14]; 3.2 in series [15]; 10.3 in [16]; 32.2 in series [17]. Moreover, in series [18], the inhibition at 0.1 µg/mL is 35%. The Crop_yield worked out at 120.8 g in series [35] and 11.25 kg in [38]. Further, the values for the PDI in series [36] and in [39] were 27.7% and 27.5%, respectively.
For `C=CCOC(Cn1ccnc1)c1ccc(Cl)cc1Cl` (configuration not stated) [ENILCONAZOLE], the ED50 in [1] is on record as less than 5 ugAi/ml.
On the same count and under the same terms, the figure for `CCCCC(O)(Cn1cncn1)c1ccc(Cl)cc1Cl` (configuration not stated) [HEXACONAZOLE] is less than 5 ugAi/ml; for `c1ccc2[nH]c(-c3cscn3)nc2c1` [THIABENDAZOLE] it is less than 5 ugAi/ml.
